As a reminder, the inhibition is the relative decrease from the control value, in per cent.

The target of the test is T1, His-hMAGL (recombinant polyhistidine tagged human MAGL protein) (Homo sapiens, UniProt Q99685).
T1 construct: made in house; host or cells: E. coli BL21(DE3)
T1 sequence (Q99685 1-303): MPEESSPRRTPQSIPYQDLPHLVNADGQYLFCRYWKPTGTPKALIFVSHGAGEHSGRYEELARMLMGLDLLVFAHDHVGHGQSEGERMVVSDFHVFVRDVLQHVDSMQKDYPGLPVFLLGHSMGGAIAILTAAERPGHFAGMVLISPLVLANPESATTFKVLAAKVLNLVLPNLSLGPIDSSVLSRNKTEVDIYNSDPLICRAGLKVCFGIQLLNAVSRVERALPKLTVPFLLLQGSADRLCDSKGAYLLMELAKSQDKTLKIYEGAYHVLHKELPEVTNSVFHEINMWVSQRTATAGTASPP
In words: Measurement of MAGL inhibitory activity (arachidonic acid production from 2-arachidonylglycerol, RapidFire-mass spectrometry). It is filed as biochemical. The conditions noted are these: MAGL inhibitory rate at 10 μM test compound; 60 min preincubation with His-hMAGL, 2-arachidonylglycerol substrate, 10 min reaction at room temperature. The procedure: Furthermore, acetonitrile (50 μL) containing 3 μM arachidonic acid-d8 (Cayman Chemical Company) was added and the mixture was stirred.
The amount of arachidonic acid in the obtained enzyme reaction mixture was calculated by measuring by RapidFire-mass spectrometry and correcting by the amount of arachidonic acid-d8. High Throughput online solid phase extraction was performed using RapidFire 300™ system (Agilent Technologies, Inc.). Samples were loaded on SPE C4 cartridge (Agilent Technologies, Inc.) and desalted with 0.2 (v/v) % acetic acid (Wako Pure Chemical Industries, Ltd.) in ultrapure water/acetonitrile (70/30, v/v) at a flow rate of 1.5 mL/min, eluted at a flow rate of 0.5 mL/min with 0.2 (v/v) % acetic acid dissolved in acetonitrile/ultrapure water (90/10, v/v), and injected into the mass spectrometry part. The injection needle was washed with ultrapure water (500 millisecond) and acetonitrile (500 millisecond) to minimize carry-over. […] The RapidFire300 system was controlled by RapidFire UI software version 3.6 (Agilent Technologies, Inc.).
The mass spectrometry of the resultant product was performed using API4000™ triple quadrupole mass spectrometer (AB SCIEX) equipped with an electrospray ion sauce (TurboIon Spray™) in a negative selected reaction monitoring (SRM) mode. The conditions of SRM are shown below. The parameters of the instrument were optimized as follows: capillary temperature 600° C., ion spray voltage −4.5 kV, collision gas 8, curtain gas 15 psi, ion source gas 1 60 psi, ion source gas 2 60 psi. The mass spectrometer was controlled by Analyst™ software version 1.5.1 (AB SCIEX). The peak area integration was analyzed using RapidFire integrator software version 3.6 (Agilent Technologies, Inc.).
MAGL inhibitory rate (%) was calculated according to the following calculation formula. (1−(arachidonic acid production amount of test compound addition group−arachidonic acid production amount of enzyme−free group)÷(arachidonic acid production amount of test compound-free group−arachidonic acid production amount of enzyme-free group))×100
Regarding `O=C1COc2ncc(C(=O)N3CCC(COc4ccc(Cl)cc4)CC3)cc2N1` [Example 6, 7-((4-((4-chlorophenoxy)methyl)piperidin-1-yl)carbonyl)-1H-pyrido[2,3-b][1,4]oxazin-2(3H)-one], the inhibition at 10 µM worked out at 98%.

For the compound `O=C1COc2ncc(C(=O)N3CCC(COc4ccccc4Cl)CC3)cc2N1` [Example 7, 7-((4-((2-chlorophenoxy)methyl)piperidin-1-yl)carbonyl)-1H-pyrido[2,3-b][1,4]oxazin-2(3H)-one], the inhibition at 10 µM was 100%.

In the case of `O=C1COc2ccc(C(=O)N3CCC(COc4ccccc4)CC3)cc2N1` [Example 12, 6-((4-(phenoxymethyl)piperidin-1-yl)carbonyl)-2H-1,4-benzoxazin-3(4H)-one], the inhibition at 10 µM amounted to 99%.

Turning to `O=C1COc2ncc(C(=O)N3CCC(COc4cccc(Cl)c4)CC3)cc2N1` [Example 13, 7-((4-((3-chlorophenoxy)methyl)piperidin-1-yl)carbonyl)-1H-pyrido[2,3-b][1,4]oxazin-2(3H)-one], the inhibition at 10 µM turned out to be 99%.

Turning to `O=C1COc2ncc(C(=O)N3CC(COCc4ccccc4)C3)cc2N1` [Example 14, 7-((3-((benzyloxy)methyl)azetidin-1-yl)carbonyl)-1H-pyrido[2.3-b][1,4]oxazin-2(3H)-one], the inhibition at 10 µM worked out at 80%.

With `O=C1COc2ncc(C(=O)N3CCC(COc4ccc(Cl)cc4Cl)CC3)cc2N1` [Example 17, 7-((4-((2,4-dichlorophenoxy)methyl)piperidin-1-yl)carbonyl)-1H-pyrido[2,3-b][1,4]oxazin-2 (3H)-one], the inhibition at 10 µM turned out to be 101%.

In the case of `O=C1COc2ncc(C(=O)N3CCC(COc4cc(Cl)ccc4Cl)CC3)cc2N1` [Example 18, 7-((4-((2,5-dichlorophenoxy)methyl)piperidin-1-yl)carbonyl)-1H-pyrido[2,3-b][1,4]oxazin-2(3H)-one], the inhibition at 10 µM stood at 100%.

As for `O=C1COc2ncc(C(=O)N3CCC(COc4ccccc4C(F)(F)F)CC3)cc2N1` [Example 19, 7-((4-((2-(trifluoromethyl)phenoxy)methyl)piperidin-1-yl)carbonyl)-1H-pyrido [2,3-b][1,4]oxazin-2(3H)-one], the inhibition at 10 µM stood at 100%.

For `O=C1COc2ncc(C(=O)N3CCC(COc4cc(F)ccc4Cl)CC3)cc2N1` [Example 21, 7-((4-((2-chloro-5-fluorophenoxy)methyl)piperidin-1-yl)carbonyl)-1H-pyrido[2,3-b][1,4]oxazin-2(3H)-one], the inhibition at 10 µM was found to be 99%.

As for `O=C1COc2ncc(C(=O)N3CCC(COc4c(F)cccc4Cl)CC3)cc2N1` [Example 22, 7-((4-((2-chloro-6-fluorophenoxy)methyl)piperidin-1-yl)carbonyl)-1H-pyrido[2,3-b][1,4]oxazin-2(3H)-one], the inhibition at 10 µM is 95%.

Turning to `O=C1COc2ccc(C(=O)N3CCC(COc4ccc(Cl)cc4Cl)CC3)cc2N1` [Example 23, 6-((4-((2,4-dichlorophenoxy)methyl)piperidin-1-yl)carbonyl)-2H-1,4-benzoxazin-3(4H)-one], the inhibition at 10 µM worked out at 100%.

Regarding `O=C1COc2ccc(C(=O)N3CCC(COc4ccccc4Cl)CC3)cc2N1` [Example 24, 6-((4-((2-chlorophenoxy)methyl)piperidin-1-yl)carbonyl)-2H-1,4-benzoxazin-3 (4H)-one], the inhibition at 10 µM is 101%.

For the compound `O=C1COc2ncc(C(=O)N3CCC(COc4cccc(Cl)c4Cl)CC3)cc2N1` [Example 25, 7-((4-((2,3-dichlorophenoxy)methyl)piperidin-1-yl)carbonyl)-1H-pyrido[2,3-b][1,4]oxazin-2(3H)-one], the inhibition at 10 µM stood at 100%.

For the compound `O=C1COc2ccc(C(=O)N3CCC(COc4ccc(F)cc4Cl)CC3)cc2N1` [Example 26, 6-((4-((2-chloro-4-fluorophenoxy)methyl)piperidin-1-yl)carbonyl)-2H-1,4-benzoxazin-3 (4H)-one], the inhibition at 10 µM came to 101%.

Turning to `O=C1COc2ccc(C(=O)N3CCC(F)(COc4ccc(F)cc4Cl)CC3)cc2N1` [Example 27, 6-((4-((2-chloro-4-fluorophenoxy)methyl)-4-fluoropiperidin-1-yl)carbonyl)-2H-1,4-benzoxazin-3(4H)-one], the inhibition at 10 µM is 101%.

For the compound `O=C1Cc2ccc(C(=O)N3CCC(COc4ccccc4Cl)CC3)cc2N1` [Example 28], the inhibition at 10 µM was found to be 100%.

`O=C(c1ccc2oc(=O)[nH]c2c1)N1CCC(COc2ccccc2Cl)CC1` [Example 29, 5-((4-((2-chlorophenoxy)methyl)piperidin-1-yl)carbonyl)-1,3-benzoxazol-2(3H)-one]: the inhibition at 10 µM was 96%.

In the case of `N#Cc1ccccc1OCC1CCN(C(=O)c2ccc3c(c2)NC(=O)CO3)CC1` [Example 30, 2-((1-((3-oxo-3,4-dihydro-2H-1,4-benzoxazin-6-yl)carbonyl)piperidin-4-yl)methoxy)benzonitriie], the inhibition at 10 µM worked out at 98%.

Consider `O=C1COc2ccc(C(=O)N3CCC(COc4cc(F)ccc4Cl)CC3)cc2N1` [Example 31, 6-((4-((2-chloro-5-fluorophenoxy)methyl)piperidin-1-yl)carbonyl)-2H-1,4-benzoxazin-3(4H)-one], for which the inhibition at 10 µM is 97%.

Turning to `O=C1COc2c(F)cc(C(=O)N3CCC(COc4ccc(F)cc4Cl)CC3)cc2N1` [Example 32, 6-((4-((2-chloro-4-fluorophenoxy)methyl)piperidin-1-yl)carbonyl)-8-fluoro-2H-1,4-benzoxazin-3(4H)-one], the inhibition at 10 µM is 99%.

Turning to `N#Cc1cc(Cl)ccc1OCC1CCN(C(=O)c2ccc3c(c2)NC(=O)CO3)CC1` [Example 33, 5-chloro-2-((1-((3-oxo-3,4-dihydro-2H-1,4-benzoxazin-6-yl)carbonyl)piperidin-4-yl)methoxy)benzonitrile], the inhibition at 10 µM stood at 99%.

As to `Cc1ccccc1OCC1CCN(C(=O)c2ccc3c(c2)NC(=O)CO3)CC1` [Example 34, 6-((4-((2-methylphenoxy)methyl)piperidin-1-yl)carbonyl)-2H-1,4-benzoxazin-3(4H)-one], the inhibition at 10 µM came out at 98%.

Regarding `Cc1ccc(OCC2CCN(C(=O)c3ccc4c(c3)NC(=O)CO4)CC2)c(C)c1` [Example 35, 6-((4-((2,4-dimethylphenoxy)methyl)piperidin-1-yl)carbonyl)-2H-1,4-benzoxazin-3(4H)-one], the inhibition at 10 µM was found to be 98%.

As to `Cc1ccc(OCC2CCN(C(=O)c3ccc4c(c3)NC(=O)CO4)CC2)c(Cl)c1` [Example 36, 6-((4-((2-chloro-4-methylphenoxy)methyl)piperdin-1-yl)carbonyl)-2H-1,4-benzoxazin-3(4H)-one], the inhibition at 10 µM came out at 104%.

As for `Cc1cc(Cl)ccc1OCC1CCN(C(=O)c2ccc3c(c2)NC(=O)CO3)CC1` [Example 37, 6-((4-((4-chloro-2-methylphenoxy)methyl)piperidin-1-yl)carbonyl)-2H-1,4-benzoxazin-3(4H)-one], the inhibition at 10 µM was found to be 101%.

Regarding `Cc1ccc(OCC2CCN(C(=O)c3ccc4c(c3)NC(=O)CO4)CC2)c(C)n1` [Example 38, 6-((4-(((2,6-dimethylpyridin-3-yl)oxy)methyl)piperidin-1-yl)carbonyl)-2H-1,4-benzoxazin-3(4H)-one], the inhibition at 10 µM was 84%.

As to `Cc1cc(C)c(OCC2CCN(C(=O)c3ccc4c(c3)NC(=O)CO4)CC2)cn1` [Example 39], the inhibition at 10 µM turned out to be 100%.

Consider `Cc1ccc(OCC2CCN(C(=O)c3ccc4c(c3)NC(=O)CO4)CC2)c(Cl)n1` [Example 40, 6-((4-(((2-chloro-6-methylpyridin-3-yl)oxy)methyl)piperidin-1-yl)carbonyl)-2H-1,4-benzoxazin-3(4H)-one], for which the inhibition at 10 µM turned out to be 95%.

In the case of `O=C1COc2ccc(C(=O)N3CCC(COc4ccc(Cl)nc4Cl)CC3)cc2N1` [Example 41, 6-((4-(((2,6-dichloropyridin-3-yl)oxy)methyl)piperidin-1-yl)carbonyl)-2H-1,4-benzoxazin-3(4H)-one], the inhibition at 10 µM is 103%.

`O=C1COc2ccc(C(=O)N3CCC(COc4ccc(Cl)c(F)c4)CC3)cc2N1` [Example 42, 6-((4-((4-chloro-3-fluorophenoxy)methyl)piperidin-1-yl)carbonyl)-2H-1,4-benzoxazin-3(4H)-one]: the inhibition at 10 µM turned out to be 99%.

For the compound `O=C1COc2ccc(C(=O)N3CCC(COc4ccc(Cl)c(Cl)c4)CC3)cc2N1` [Example 43, 6-((4-((3,4-dichlorophenoxy)methyl)piperidin-1-yl)carbonyl)-2H-1,4-benzoxazin-3(4H)-one], the inhibition at 10 µM was determined as 100%.

The values are drawn from patent US10106556B2, “Heterocyclic compound” (TAKEDA PHARMACEUTICAL COMPANY LIMITED, priority 2015, dated 2018).
